Assay results from the NIST ThermoML archive (doi:10.1016/j.jct.2013.04.010).
“And” between values parts separate entries of the source, which are not always exact repeats. Equal entries are not always repeated. ± gives the expanded uncertainty stated by the source.

Details: Liquid, Other PVT measurement

CCCCC(CC)COC(=O)c1ccccc1C(=O)OCC(CC)CCCC (stereo not given) [bis(2-ethylhexyl) 1,2-benzenedicarboxylate]
Details | mass density
373.29 K, 3800 kPa | 921 ± 6 kg/m3
373.29 K, 7600 kPa | 924 ± 7 kg/m3
373.29 K, 12200 kPa | 928 ± 7 kg/m3
373.29 K, 15900 kPa | 931 ± 7 kg/m3
373.29 K, 18100 kPa | 933 ± 7 kg/m3
373.29 K, 22300 kPa | 936 ± 7 kg/m3
373.29 K, 28300 kPa | 940 ± 7 kg/m3
373.29 K, 34800 kPa | 945 ± 7 kg/m3
373.29 K, 42200 kPa | 950 ± 7 kg/m3
373.29 K, 48900 kPa | 954 ± 7 kg/m3
373.29 K, 56100 kPa | 959 ± 7 kg/m3
373.29 K, 69500 kPa | 967 ± 7 kg/m3
373.29 K, 83700 kPa | 974 ± 7 kg/m3
373.29 K, 104200 kPa | 984 ± 7 kg/m3
373.29 K, 125400 kPa | 994 ± 7 kg/m3
373.29 K, 138900 kPa | 1001 ± 7 kg/m3
373.29 K, 152900 kPa | 1007 ± 7 kg/m3
373.29 K, 174400 kPa | 1015 ± 7 kg/m3
373.29 K, 208300 kPa | 1029 ± 7 kg/m3
373.29 K, 240000 kPa | 1041 ± 7 kg/m3
373.29 K, 262100 kPa | 1046 ± 7 kg/m3
423.53 K, 4200 kPa | 878 ± 6 kg/m3
423.53 K, 7900 kPa | 885 ± 6 kg/m3
423.53 K, 11100 kPa | 890 ± 6 kg/m3
423.53 K, 14500 kPa | 895 ± 6 kg/m3
423.53 K, 18000 kPa | 898 ± 6 kg/m3
423.53 K, 21200 kPa | 901 ± 6 kg/m3
423.53 K, 27800 kPa | 908 ± 6 kg/m3
423.53 K, 35200 kPa | 914 ± 6 kg/m3
423.53 K, 42100 kPa | 918 ± 6 kg/m3
423.53 K, 49200 kPa | 924 ± 7 kg/m3
423.53 K, 55700 kPa | 930 ± 7 kg/m3
423.53 K, 70700 kPa | 939 ± 7 kg/m3
423.53 K, 83700 kPa | 948 ± 7 kg/m3
423.53 K, 104200 kPa | 960 ± 7 kg/m3
423.53 K, 125400 kPa | 970 ± 7 kg/m3
423.53 K, 139900 kPa | 977 ± 7 kg/m3
423.53 K, 153700 kPa | 983 ± 7 kg/m3
423.53 K, 173400 kPa | 992 ± 7 kg/m3
423.53 K, 207100 kPa | 1006 ± 7 kg/m3
423.53 K, 239400 kPa | 1018 ± 7 kg/m3
423.53 K, 263800 kPa | 1028 ± 7 kg/m3
476.2 K, 5500 kPa | 847 ± 6 kg/m3
476.2 K, 9400 kPa | 853 ± 6 kg/m3
476.2 K, 9500 kPa | 853 ± 6 kg/m3
476.2 K, 15200 kPa | 861 ± 6 kg/m3
476.2 K, 15700 kPa | 861 ± 6 kg/m3
476.2 K, 26800 kPa | 874 ± 6 kg/m3
476.2 K, 27300 kPa | 874 ± 6 kg/m3
476.2 K, 27500 kPa | 874 ± 6 kg/m3
476.2 K, 46700 kPa | 894 ± 6 kg/m3
476.2 K, 46900 kPa | 894 ± 6 kg/m3
476.2 K, 59800 kPa | 905 ± 6 kg/m3
476.2 K, 70700 kPa | 914 ± 7 kg/m3
476.2 K, 71500 kPa | 913 ± 7 kg/m3
476.2 K, 95700 kPa | 931 ± 7 kg/m3
476.2 K, 96400 kPa | 931 ± 7 kg/m3
476.2 K, 114200 kPa | 942 ± 7 kg/m3
476.2 K, 114800 kPa | 942 ± 7 kg/m3
476.2 K, 139800 kPa | 959 ± 7 kg/m3
476.2 K, 140400 kPa | 958 ± 7 kg/m3
476.2 K, 176200 kPa | 975 ± 7 kg/m3
476.2 K, 206900 kPa | 990 ± 7 kg/m3
476.2 K, 240200 kPa | 1002 ± 7 kg/m3
476.2 K, 269000 kPa | 1013 ± 7 kg/m3
491.86 K, 3900 kPa | 830 ± 6 kg/m3 and 831 ± 6 kg/m3
491.86 K, 4100 kPa | 830 ± 6 kg/m3
491.86 K, 9900 kPa | 840 ± 6 kg/m3
491.86 K, 10500 kPa | 839 ± 6 kg/m3
491.86 K, 22800 kPa | 856 ± 6 kg/m3
491.86 K, 23300 kPa | 856 ± 6 kg/m3
491.86 K, 37200 kPa | 870 ± 6 kg/m3
491.86 K, 37500 kPa | 870 ± 6 kg/m3
491.86 K, 50700 kPa | 886 ± 6 kg/m3
491.86 K, 51100 kPa | 885 ± 6 kg/m3
491.86 K, 71500 kPa | 902 ± 6 kg/m3
491.86 K, 71900 kPa | 902 ± 6 kg/m3
491.86 K, 94800 kPa | 918 ± 6 kg/m3
491.86 K, 95000 kPa | 918 ± 6 kg/m3
491.86 K, 121700 kPa | 934 ± 7 kg/m3
491.86 K, 121800 kPa | 934 ± 7 kg/m3
491.86 K, 145400 kPa | 948 ± 7 kg/m3
491.86 K, 145600 kPa | 948 ± 7 kg/m3
491.86 K, 177200 kPa | 964 ± 7 kg/m3
491.86 K, 177400 kPa | 964 ± 7 kg/m3
491.86 K, 204300 kPa | 977 ± 7 kg/m3
491.86 K, 206000 kPa | 978 ± 7 kg/m3
491.86 K, 229400 kPa | 989 ± 7 kg/m3
491.86 K, 230800 kPa | 988 ± 7 kg/m3
491.86 K, 253700 kPa | 998 ± 7 kg/m3
491.86 K, 258100 kPa | 1000 ± 7 kg/m3
523.6 K, 5700 kPa | 811 ± 6 kg/m3
523.6 K, 9200 kPa | 817 ± 6 kg/m3
523.6 K, 16100 kPa | 827 ± 6 kg/m3
523.6 K, 21600 kPa | 835 ± 6 kg/m3
523.6 K, 27300 kPa | 842 ± 6 kg/m3
523.6 K, 27500 kPa | 842 ± 6 kg/m3
523.6 K, 35500 kPa | 851 ± 6 kg/m3
523.6 K, 35700 kPa | 851 ± 6 kg/m3
523.6 K, 44200 kPa | 860 ± 6 kg/m3
523.6 K, 44300 kPa | 860 ± 6 kg/m3
523.6 K, 44400 kPa | 860 ± 6 kg/m3
523.6 K, 44600 kPa | 860 ± 6 kg/m3
523.6 K, 55800 kPa | 871 ± 6 kg/m3
523.6 K, 56300 kPa | 871 ± 6 kg/m3
523.6 K, 68500 kPa | 882 ± 6 kg/m3
523.6 K, 68900 kPa | 882 ± 6 kg/m3
523.6 K, 82200 kPa | 893 ± 7 kg/m3
523.6 K, 82500 kPa | 892 ± 7 kg/m3
523.6 K, 97000 kPa | 903 ± 6 kg/m3
523.6 K, 97300 kPa | 903 ± 6 kg/m3
523.6 K, 117000 kPa | 916 ± 6 kg/m3
523.6 K, 117400 kPa | 916 ± 6 kg/m3
523.6 K, 117700 kPa | 916 ± 6 kg/m3
523.6 K, 155700 kPa | 939 ± 7 kg/m3
523.6 K, 156100 kPa | 939 ± 7 kg/m3
523.6 K, 181200 kPa | 952 ± 7 kg/m3
523.6 K, 181500 kPa | 952 ± 7 kg/m3
523.6 K, 209500 kPa | 964 ± 7 kg/m3
523.6 K, 209900 kPa | 964 ± 7 kg/m3
523.6 K, 233900 kPa | 974 ± 7 kg/m3
523.6 K, 234000 kPa | 974 ± 7 kg/m3
523.6 K, 253400 kPa | 983 ± 7 kg/m3
523.6 K, 253600 kPa | 983 ± 7 kg/m3
523.6 K, 263500 kPa | 987 ± 7 kg/m3
